Assays:
[1] = biological target: T1, Neuropeptide Y receptor type 4 (Homo sapiens, UniProt P50391); assay: Agonist activity at human neuropeptide Y Y4 receptor expressed in CHO-mtAEQ cells co-expressing Gqi5 by calcium aequorin assay; format: functional, cell-based
[2] = biological target: T2, Neuropeptide Y receptor type 1 (Homo sapiens, UniProt P25929); assay: Displacement of [3H]UR-MK299 from human neuropeptide Y Y1 receptor in human SK-N-MC cells measured after 90 mins by scintillation counting analysis; format: cell-based
T2 sequence (P25929 whole entry): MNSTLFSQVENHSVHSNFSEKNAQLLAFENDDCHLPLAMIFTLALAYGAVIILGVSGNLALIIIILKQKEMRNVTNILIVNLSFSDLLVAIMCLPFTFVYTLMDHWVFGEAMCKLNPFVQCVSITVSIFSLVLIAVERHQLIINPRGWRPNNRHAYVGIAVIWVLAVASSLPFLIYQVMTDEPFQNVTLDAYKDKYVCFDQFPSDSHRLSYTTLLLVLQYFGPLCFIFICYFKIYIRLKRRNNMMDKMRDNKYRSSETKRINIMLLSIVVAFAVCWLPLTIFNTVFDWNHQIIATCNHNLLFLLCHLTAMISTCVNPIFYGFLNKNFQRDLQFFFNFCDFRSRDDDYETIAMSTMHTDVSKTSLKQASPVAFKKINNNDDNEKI

[3] = Stability in human plasma assessed as intact peptide measured after 6 hr at 37 degC by RP-HPLC analysis; format: ADME, cell-free; details: read-out: Stability
[4] = biological target: T1, Neuropeptide Y receptor type 4; assay: Displacement of [3H]UR-KK200 from human neuropeptide Y Y4 receptor expressed in CHO-mtAEQ cells co-expressing Gqi5 assessed as fold change in affinity measured after 90 mins by scintillation counting analysis relative to Ac-Arg-Tyr-Arg-Leu-Arg-Tyr-NH2; format: cell-based; details: filed as agonist
[5] = species: Homo sapiens; assay: (§1) Selectivity ratio, Ki for displacement of [3H]UR-MK299 from human neuropeptide Y Y1 receptor in human SK-N-MC cells measured after 90 mins by scintillation counting analysis to Ki for displacement of [3H]UR-KK200 from human neuropeptide Y Y4 receptor expressed in CHO-mtAEQ cells co-expressing Gqi5 measured after 90 mins by scintillation counting analysis; format: cell-based
[6] = Stability in human plasma assessed as half life at 37 degC by RP-HPLC analysis; format: ADME, cell-free
[7] = Stability in human plasma assessed as intact peptide in presence of rami-pril measured at 50 uM after 24 hrs at 37 degC by LC-HRMS analysis; format: ADME, cell-free
[8] = biological target: T1, Neuropeptide Y receptor type 4; assay: Intrinsic activity at human neuropeptide Y Y4 receptor expressed in HEK293T-ARRB1 cells assessed as stimulation of beta-arrestin 1 recruitment by multimode plate reader relative to hPP; format: functional, cell-based
[9] = biological target: T3, Neuropeptide Y receptor type 5 (Homo sapiens, UniProt Q15761); assay: Displacement of [3H]propionyl-pNPY from human neuropeptide Y Y5 receptor in human HEC-1B cells measured after 90 mins by scintillation counting analysis; format: cell-based, HEC-1B cell line
T3 sequence (Q15761 whole entry): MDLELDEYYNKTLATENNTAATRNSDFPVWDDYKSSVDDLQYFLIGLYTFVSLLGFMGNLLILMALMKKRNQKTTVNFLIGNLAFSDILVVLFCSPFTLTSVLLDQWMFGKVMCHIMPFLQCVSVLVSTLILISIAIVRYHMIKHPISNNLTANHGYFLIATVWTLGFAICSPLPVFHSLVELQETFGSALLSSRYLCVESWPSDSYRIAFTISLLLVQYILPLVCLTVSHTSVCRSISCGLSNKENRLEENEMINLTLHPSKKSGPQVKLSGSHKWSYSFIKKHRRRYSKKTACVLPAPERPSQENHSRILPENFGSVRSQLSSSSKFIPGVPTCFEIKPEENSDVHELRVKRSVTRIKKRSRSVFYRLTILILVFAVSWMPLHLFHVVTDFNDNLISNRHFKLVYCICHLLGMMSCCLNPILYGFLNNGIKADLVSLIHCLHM

[10] = Stability in human plasma assessed as intact peptide measured after 2 hr at 37 degC by RP-HPLC analysis; format: ADME, cell-free; details: read-out: Stability
[11] = Stability in human plasma assessed as intact peptide measured after 30 mins at 37 degC by RP-HPLC analysis; format: ADME, cell-free; details: read-out: Stability
[12] = species: Homo sapiens; assay: Selectivity ratio, Ki for displacement of [3H]UR-MK299 from human neuropeptide Y Y2 receptor expressed in CHO cells measured after 90 mins by scintillation counting analysis to Ki for displacement of [3H]UR-KK200 from human neuropeptide Y Y4 receptor expressed in CHO-mtAEQ cells co-expressing Gqi5 measured after 90 mins by scintillation counting analysis; format: cell-based
[13] = biological target: T1, Neuropeptide Y receptor type 4; assay: Agonist activity at human neuropeptide Y Y4 receptor expressed in HEK293T-ARRB2 cells assessed as stimulation of beta-arrestin 2 recruitment by multimode plate reader; format: functional, cell-based
[14] = biological target: T1, Neuropeptide Y receptor type 4; assay: Agonist activity at human neuropeptide Y Y4 receptor expressed in HEK293T cells co-expressing CRE-controlled gene reporter firefly luciferase assessed as relative luminescence measured after 15 mins; format: functional, cell-based
[15] = biological target: T1, Neuropeptide Y receptor type 4; assay: Intrinsic activity at human neuropeptide Y Y4 receptor expressed in HEK293T cells co-expressing CRE-controlled gene reporter firefly luciferase assessed as relative luminescence measured after 15 mins relative to hPP; format: functional, cell-based
[16] = species: Homo sapiens; assay: as §1, with “[3H]propionyl-pNPY” for “[3H]UR-MK299”, “Y5” for “Y1”, “HEC-1B” for “SK-N-MC”; format: cell-based
[17] = biological target: T1, Neuropeptide Y receptor type 4; assay: Agonist activity at human neuropeptide Y Y4 receptor expressed in HEK293T-ARRB1 cells assessed as stimulation of beta-arrestin 1 recruitment by multimode plate reader; format: functional, cell-based; details: read-out: EC50
[18] = Stability in human plasma assessed as intact peptide measured after 24 hrs at 37 degC by RP-HPLC analysis; format: ADME, cell-free; details: read-out: Stability
[19] = biological target: T1, Neuropeptide Y receptor type 4; assay: Intrinsic activity at human neuropeptide Y Y4 receptor expressed in CHO-mtAEQ cells co-expressing Gqi5 by calcium aequorin assay; format: functional, cell-based
[20] = biological target: T1, Neuropeptide Y receptor type 4; assay: Displacement of [3H]UR-KK200 from human neuropeptide Y Y4 receptor expressed in CHO-mtAEQ cells co-expressing Gqi5 measured after 90 mins by scintillation counting analysis; format: cell-based
[21] = biological target: T1, Neuropeptide Y receptor type 4; assay: Intrinsic activity at human neuropeptide Y Y4 receptor expressed in HEK293T-ARRB2 cells assessed as stimulation of beta-arrestin 2 recruitment by multimode plate reader relative to hPP; format: functional, cell-based
[22] = biological target: T4, Neuropeptide Y receptor type 2 (Homo sapiens, UniProt P49146); assay: Displacement of [3H]UR-MK299 from human neuropeptide Y Y2 receptor expressed in CHO cells measured after 90 mins by scintillation counting analysis; format: cell-based
T4 sequence (P49146 whole entry): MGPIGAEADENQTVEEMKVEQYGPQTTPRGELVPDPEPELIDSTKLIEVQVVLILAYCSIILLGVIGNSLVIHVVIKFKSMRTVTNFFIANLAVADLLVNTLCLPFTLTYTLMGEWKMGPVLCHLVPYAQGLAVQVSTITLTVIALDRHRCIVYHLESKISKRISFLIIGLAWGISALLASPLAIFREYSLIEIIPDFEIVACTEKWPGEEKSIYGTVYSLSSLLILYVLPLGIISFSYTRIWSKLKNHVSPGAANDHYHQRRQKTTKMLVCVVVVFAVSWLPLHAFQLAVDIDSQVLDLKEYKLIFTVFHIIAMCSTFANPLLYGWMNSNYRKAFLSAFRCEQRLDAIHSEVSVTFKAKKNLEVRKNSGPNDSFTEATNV

[23] = Inhibition of ACE (unknown origin); set-up: species or system Homo sapiens
[24] = Stability of the compound in pH 7.4 PBS buffer measured up to 48 hrs by reversed-phase HPLC analysis; format: physicochemical; details: pH 7.4, 48 h
[25] = Stability in human plasma assessed as intact peptide measured after 1 hr at 37 degC by RP-HPLC analysis; format: ADME, cell-free; details: read-out: Stability

T1 sequence (P50391 whole entry): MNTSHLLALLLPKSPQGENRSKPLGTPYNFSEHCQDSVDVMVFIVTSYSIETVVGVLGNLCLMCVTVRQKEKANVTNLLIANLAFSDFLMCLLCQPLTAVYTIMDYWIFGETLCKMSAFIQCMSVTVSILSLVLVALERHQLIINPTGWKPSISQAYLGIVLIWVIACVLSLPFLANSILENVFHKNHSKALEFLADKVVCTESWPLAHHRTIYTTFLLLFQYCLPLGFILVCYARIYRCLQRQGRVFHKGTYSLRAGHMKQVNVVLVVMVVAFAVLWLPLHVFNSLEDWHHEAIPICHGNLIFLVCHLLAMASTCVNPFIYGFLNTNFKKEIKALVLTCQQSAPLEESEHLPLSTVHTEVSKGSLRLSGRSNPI

| EC50 [1] | Ki ([2]; read-out: pKi (converted)) | remaining at 6 h [3] | fold change (FC) [4] | half-life [6] | Stability [7] | Intrinsic activity [8] | Ki ([9]; read-out: pKi (converted)) | remaining at 2 h [10] | remaining at 0.5 h [11] | EC50 [13] | Intrinsic activity [15] | EC50 [17] | Intrinsic activity [19] | Ki ([20]; read-out: Ki) | Intrinsic activity [21] | Ki ([22]; read-out: Ki) | SMILES | Selectivity ratio [5] | Selectivity ratio [12] | Selectivity ratio [16] | also measured |
| --- | --- | --- | --- | --- | --- | --- | --- | --- | --- | --- | --- | --- | --- | --- | --- | --- | --- | --- | --- | --- | --- |
| 105 nM | > 10000 nM | 67% | 1.6 | 7.9 h | Stable | 67% | > 10000 nM | 87% | 94% | 162 nM | 95% | 120 nM | 67% | 2.1 nM | 76% | > 3000 nM | CC(C)C[C@H](NC(=O)[C@H](CCCNC(=N)NC(=O)NCCCCN)NC(=O)[C@H](Cc1c[nH]c2ccccc12)NC(=O)[C@H](CCCNC(=N)N)NC(=O)CCC(=O)O)C(=O)N[C@@H](CCCNC(=N)N)C(=O)N[C@@H](Cc1ccc(O)cc1)C(N)=O | > 4700 | > 1400 | > 4700 | Ki ([2]; sk-n-mc, read-out: Ki): > 10000 nM; EC50 [14]: 12 nM; remaining at 24 h [18]: 3%; Ki ([20]; read-out: pKi (converted)): 1.95 nM; Ki ([22]; read-out: pKi (converted)): > 3160 nM |
|  |  |  |  |  |  |  |  |  |  |  |  |  |  |  |  |  | CCOC(=O)[C@H](CCc1ccccc1)N[C@@H](C)C(=O)N1[C@H](C(=O)O)C[C@@H]2CCC[C@@H]21 |  |  |  | pIC50 [23]: 7.6 |
| 204 nM | > 10000 nM | 49% | 2.6 | 5.9 h | Stable | 75% | > 10000 nM | 91% | > 99% | 141 nM | 88% | 160 nM | 70% | 13 nM | 83% | > 10000 nM | CC(C)C[C@H](NC(=O)[C@H](CCCNC(=N)NC(=O)NCCCCN)NC(=O)[C@H](Cc1ccc(O)cc1)NC(=O)[C@H](CCCNC(=N)N)NC(=O)CCC(=O)O)C(=O)N[C@@H](CCCNC(=N)N)C(=O)N[C@@H](Cc1ccc(O)cc1)C(N)=O | > 7600 | > 7600 | > 7600 | Ki ([2]; sk-n-mc, read-out: Ki): > 10000 nM; EC50 [14]: 17 nM; remaining at 24 h [18]: 3%; Ki ([20]; read-out: pKi (converted)): 1.26 nM; Ki ([22]; read-out: pKi (converted)): > 10000 nM |
| 2.69 nM | > 3160 nM | 3% | 71 | 1.9 h | Stable | 68% | > 1000 nM | 52% | > 99% | 1.58 nM | 89% | 3.6 nM | 82% | 0.048 nM | 73% | > 10000 nM | CC(C)C[C@H](NC(=O)[C@@H]1CCCNC(=N)NC(=O)NCCCCNC(=O)CCC(=O)N[C@@H](CCCNC(=N)N)C(=O)N[C@@H](Cc2ccc(O)cc2)C(=O)N1)C(=O)N[C@@H](CCCNC(=N)N)C(=O)N[C@@H](Cc1ccc(O)cc1)C(N)=O | > 60000 | > 200 | > 60000 | Ki ([2]; read-out: Ki): > 3000 nM; Ki ([9]; read-out: Ki): > 3000 nM; Stability [24]: Stable; remaining at 1 h [25]: 85%; Ki ([20]; read-out: pKi (converted)): 0.0437 nM; Ki ([22]; read-out: pKi (converted)): > 10000 nM |
| 1 nM | > 10000 nM | 19% | 103 | 2.6 h | Stable | 98% | > 1000 nM | 57% | 94% | 1.66 nM | 95% | 1 nM | 84% | 0.033 nM | 80% | > 10000 nM | CC(C)C[C@H](NC(=O)[C@@H]1CCCNC(=N)NC(=O)NCCCCNC(=O)CCC(=O)N[C@@H](CCCNC(=N)N)C(=O)N[C@@H](Cc2c[nH]c3ccccc23)C(=O)N1)C(=O)N[C@@H](CCCNC(=N)N)C(=O)N[C@@H](Cc1ccc(O)cc1)C(N)=O | > 300000 | > 300 | > 90000 | Ki ([2]; sk-n-mc, read-out: Ki): > 10000 nM; Ki ([9]; read-out: Ki): > 3000 nM; Stability [24]: Stable; EC50 [14]: 1.41 nM; remaining at 1 h [25]: 87%; Ki ([22]; read-out: pKi (converted)): > 10000 nM |
